{
  "source": "patent US7501413B2",
  "about": "“Dicarboxamide derivatives” (Hoffmann-La Roche Inc., priority 2004, dated 2009)",
  "data": [
    {"target": "T1, human factor Xa (Homo sapiens, UniProt P00742)", "T1 construct": "purchased Enzyme Research Laboratories", "T1 sequence (P00742 235-488 limits assumed)": "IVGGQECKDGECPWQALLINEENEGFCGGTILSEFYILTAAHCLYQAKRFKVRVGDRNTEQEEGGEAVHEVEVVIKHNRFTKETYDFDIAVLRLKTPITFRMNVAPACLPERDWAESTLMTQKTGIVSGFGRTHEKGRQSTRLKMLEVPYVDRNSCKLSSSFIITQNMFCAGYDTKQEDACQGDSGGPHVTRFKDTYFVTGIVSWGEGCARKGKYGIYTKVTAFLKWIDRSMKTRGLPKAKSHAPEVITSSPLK", "T1 sequence (P00742 41-179 partner limits assumed)": "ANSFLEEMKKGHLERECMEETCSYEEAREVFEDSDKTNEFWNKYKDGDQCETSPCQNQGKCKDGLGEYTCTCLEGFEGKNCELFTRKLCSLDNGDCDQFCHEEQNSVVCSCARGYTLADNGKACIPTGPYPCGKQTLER", "test": "Factor Xa chromogenic peptide substrate assay (S-2222)", "format": "biochemical", "conditions": "human factor Xa 3 nM, chromogenic substrate S-2222 at 200 nM, HNPT buffer pH 7.8, room temperature; apparent Ki calculated from IC50 (Cheng-Prusoff), Km 613 μM", "method": "Factor Xa activity was measured spectrophotometrically in microtiter plates in a final volume of 150 μl using the following conditions: Inhibition of human factor Xa (Enzyme Research Laboratories) was tested at an enzyme concentration of 3 nM using the chromogenic substrate S-2222 (Chromogenix AB, Mölndal, Sweden) at […]. The reaction kinetics of the enzyme and the substrate were linear with both time and the enzyme concentration. The inhibitors were dissolved in DMSO and tested at various concentrations up to 100 μM. The inhibitors were diluted using HNPT buffer consisting of HEPES 100 mM, NaCl 140 mM, PEG 6000 0.1% and Tween 80 0.02%, pH 7.8. The cleavage of S-2222 by human factor Xa was followed at 405 nm for 5 minutes at room temperature. The velocity of the reaction was determined by the autoreader from the slope of the linear regression fit to 7 time points (1 minute). The initial velocity for each inhibitor concentration was determined by the slope of at least 4 time points in the linear phase by a linear regression fit (mOD/min^2). Apparent dissociation constants Ki were calculated according to Cheng and Prusoff [Cheng, Y. C.; Prusoff, W. H. Relationship between the inhibition constant (Ks) and the concentration of the inhibitor that causes 50 percent inhibition (IC50) of an enzyme reaction. Biochem. Pharmacol. 1973, 22, 3099-3108.] based on the IC50 and the respective Km, determined previously (Ki=IC50/(1+S/Km)). The Km for the substrate used was determined under the conditions of the test with at least 5 substrate concentrations ranging from 0.5 to 15 times Km. [Lottenberg R, Hall J A, Blinder M, Binder E P, Jackson C M., The action of thrombin on peptide p-nitroanilide substrates. Substrate selectivity and examination of hydrolysis under different reaction conditions. Biochim Biophys Acta. 1983 Feb. 15; 742(3):539-57]. according to Eadie [Eadie G. S. The inhibition of cholinesterase by physostigmine and prostigmine. J. Biol. Chem. 1942, 146, 85-93.]. The Km for S-2222 amounted to 613 μM.", "units": {"Ki": "µM"}, "values": [
      {"compound": "COC1(CO)C[C@H](C(=O)Nc2ccc(Cl)cc2)[C@@H](C(=O)Nc2ccc(-n3ccccc3=O)cc2F)C1", "note": "(single isomer, unassigned) [Example 47, (1S,2S,4S)- or (1S,2S,4R)-4-Hydroxymethyl-4-methoxy-cyclopentane-1,2-dicarboxylic acid 1-[(4-chloro-phenyl)-amide]2-{[2-fluoro-4-(2-oxo-2H-pyridin-1-yl)-phenyl]-amide}]", "Ki": 0.009},
      {"compound": "O=C(Nc1ccc(Cl)cc1)[C@H]1CC2(CC2)C[C@@H]1C(=O)Nc1ccc(-n2ccccc2=O)cc1F", "note": "[Example 48, (5S,6S)-Spiro[2.4]heptane-5,6-dicarboxylic acid (4-chloro-phenyl)-amide [2-fluoro-4-(2-oxo-2H-pyridin-1-yl)-phenyl]-amide]", "Ki": 0.008},
      {"compound": "O=C(Nc1ccc(Cl)cc1)[C@H]1C[C@@H](O)C[C@H]1C(=O)Nc1ccc(-n2ccccc2=O)cc1F", "note": "[Example 52, (1S,2S,4S)-4-Hydroxy-cyclopentane-1,2-dicarboxylic acid 1-[(4-chloro-phenyl)-amide]2-{[2-fluoro-4-(2-oxo-2H-pyridin-1-yl)-phenyl]-amide}]", "Ki": 0.013}
    ]}
  ]
}
